Reference: PubChem BioAssay (NCI)
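Following 48 hours of exposure in 96-well plates, responses at five concentrations were used to interpolate endpoints linearly. GI50 marks 50% less growth. TGI denotes the concentration required for complete inhibition of growth.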

Columns and labels:
Assay in all cases: inhibition of tumour cell growth, NCI panel, 48 h
CAKI-1 renal = system: CAKI-1 renal
SN12C renal = system: SN12C renal
SK-MEL-2 melanoma = system: SK-MEL-2 melanoma
NCI-H226 lung = system: NCI-H226 lung
LOX IMVI melanoma = system: LOX IMVI melanoma
RPMI-8226 leukemia = system: RPMI-8226 leukemia
SF-268 CNS = system: SF-268 CNS
PC-3 prostate = system: PC-3 prostate
U251 CNS = system: U251 CNS
M14 melanoma = system: M14 melanoma
UO-31 renal = system: UO-31 renal
K-562 leukemia = system: K-562 leukemia
A498 renal = system: A498 renal
HOP-62 NSCLC = system: HOP-62 NSCLC
OVCAR-8 ovarian = system: OVCAR-8 ovarian
HCT-15 colon = system: HCT-15 colon
HCC-2998 colon = system: HCC-2998 colon
T-47D breast = system: T-47D breast
SF-539 CNS = system: SF-539 CNS
UACC-257 melanoma = system: UACC-257 melanoma
NCI-H522 lung = system: NCI-H522 lung
786-0 renal = system: 786-0 renal
HOP-92 NSCLC = system: HOP-92 NSCLC
HT29 colon = system: HT29 colon
A549 NSCLC = system: A549 NSCLC
IGROV1 ovarian = system: IGROV1 ovarian
SW-620 colon = system: SW-620 colon
NCI-H460 lung = system: NCI-H460 lung
EKVX NSCLC = system: EKVX NSCLC
SK-OV-3 ovarian = system: SK-OV-3 ovarian
UACC-62 melanoma = system: UACC-62 melanoma
DU-145 prostate = system: DU-145 prostate
ACHN renal = system: ACHN renal
SK-MEL-5 melanoma = system: SK-MEL-5 melanoma
MALME-3M melanoma = system: MALME-3M melanoma
HS 578T breast = system: HS 578T breast
BT-549 breast = system: BT-549 breast
SNB-75 CNS = system: SNB-75 CNS
OVCAR-4 ovarian = system: OVCAR-4 ovarian
HL-60(TB) leukemia = system: HL-60(TB) leukemia
SK-MEL-28 melanoma = system: SK-MEL-28 melanoma
NCI/ADR-RES ovarian = system: NCI/ADR-RES ovarian
SR leukemia = system: SR leukemia
COLO 205 colon = system: COLO 205 colon
KM12 colon = system: KM12 colon
HCT-116 colon = system: HCT-116 colon
MDA-MB-231 breast = system: MDA-MB-231 breast
TK-10 renal = system: TK-10 renal
SF-295 CNS = system: SF-295 CNS
OVCAR-5 ovarian = system: OVCAR-5 ovarian
MCF7 breast = system: MCF7 breast
MOLT-4 leukemia = system: MOLT-4 leukemia
CCRF-CEM leukemia = system: CCRF-CEM leukemia
RXF 393 renal = system: RXF 393 renal
SNB-19 CNS = system: SNB-19 CNS

Compound: Cc1ccccc1N1CCN(C2=C(Cl)C(=O)c3ncccc3C2=O)CC1
- GI50 (CAKI-1 renal): 2.78 µM
- TGI (CAKI-1 renal): > 100 µM
- GI50 (SN12C renal): 3.56 µM
- TGI (SN12C renal): 78.9 µM
- GI50 (SK-MEL-2 melanoma): 2.75 µM
- TGI (SK-MEL-2 melanoma): 14.8 µM
- GI50 (NCI-H226 lung): 20.8 µM
- TGI (NCI-H226 lung): > 100 µM
- GI50 (LOX IMVI melanoma): 1.65 µM
- TGI (LOX IMVI melanoma): 3.21 µM
- GI50 (RPMI-8226 leukemia): 2 µM
- TGI (RPMI-8226 leukemia): 5.22 µM
- GI50 (SF-268 CNS): 23.7 µM
- TGI (SF-268 CNS): > 100 µM
- GI50 (PC-3 prostate): 1.63 µM
- TGI (PC-3 prostate): 3.7 µM
- GI50 (U251 CNS): 6 µM
- TGI (U251 CNS): 25.6 µM
- GI50 (M14 melanoma): 2.2 µM
- TGI (M14 melanoma): 6.45 µM
- GI50 (UO-31 renal): 1.49 µM
- TGI (UO-31 renal): 2.86 µM
- GI50 (K-562 leukemia): 1.28 µM
- TGI (K-562 leukemia): 4.08 µM
- GI50 (A498 renal): > 100 µM
- TGI (A498 renal): > 100 µM
- GI50 (HOP-62 NSCLC): 35.1 µM
- TGI (HOP-62 NSCLC): > 100 µM
- GI50 (OVCAR-8 ovarian): 1.91 µM
- TGI (OVCAR-8 ovarian): 4.35 µM
- GI50 (HCT-15 colon): 1.69 µM
- TGI (HCT-15 colon): 4.52 µM
- GI50 (HCC-2998 colon): 3.33 µM
- TGI (HCC-2998 colon): 13.8 µM
- GI50 (T-47D breast): 1.9 µM
- TGI (T-47D breast): 4.35 µM
- GI50 (SF-539 CNS): 1.8 µM
- TGI (SF-539 CNS): 3.32 µM
- GI50 (UACC-257 melanoma): 1.98 µM
- TGI (UACC-257 melanoma): 4.25 µM
- GI50 (NCI-H522 lung): 1.68 µM
- TGI (NCI-H522 lung): 3.31 µM
- GI50 (786-0 renal): 1.71 µM
- TGI (786-0 renal): 3.09 µM
- GI50 (HOP-92 NSCLC): 1.36 µM
- TGI (HOP-92 NSCLC): 2.7 µM
- GI50 (HT29 colon): 5.33 µM
- TGI (HT29 colon): > 100 µM
- GI50 (A549 NSCLC): 23.5 µM
- TGI (A549 NSCLC): > 100 µM
- GI50 (IGROV1 ovarian): 1.97 µM
- TGI (IGROV1 ovarian): 4.09 µM
- GI50 (SW-620 colon): 1.48 µM
- TGI (SW-620 colon): 3.45 µM
- GI50 (NCI-H460 lung): 6.68 µM
- TGI (NCI-H460 lung): 46.5 µM
- GI50 (EKVX NSCLC): 1.68 µM
- TGI (EKVX NSCLC): 3.1 µM
- GI50 (SK-OV-3 ovarian): 37.2 µM
- TGI (SK-OV-3 ovarian): > 100 µM
- GI50 (UACC-62 melanoma): 3.92 µM
- TGI (UACC-62 melanoma): 42.2 µM
- GI50 (DU-145 prostate): 3.8 µM
- TGI (DU-145 prostate): > 100 µM
- GI50 (ACHN renal): 1.85 µM
- TGI (ACHN renal): 3.89 µM
- GI50 (SK-MEL-5 melanoma): 4.98 µM
- TGI (SK-MEL-5 melanoma): 17.7 µM
- GI50 (MALME-3M melanoma): 2.03 µM
- TGI (MALME-3M melanoma): 4.64 µM
- GI50 (HS 578T breast): 4.94 µM
- TGI (HS 578T breast): 85.3 µM
- GI50 (BT-549 breast): 1.96 µM
- TGI (BT-549 breast): 3.41 µM
- GI50 (SNB-75 CNS): 17.4 µM
- TGI (SNB-75 CNS): > 100 µM
- GI50 (OVCAR-4 ovarian): 1.75 µM
- TGI (OVCAR-4 ovarian): 3.23 µM
- GI50 (HL-60(TB) leukemia): 1.61 µM
- TGI (HL-60(TB) leukemia): 4.05 µM
- GI50 (SK-MEL-28 melanoma): 2.19 µM
- TGI (SK-MEL-28 melanoma): 5.06 µM
- GI50 (NCI/ADR-RES ovarian): 2.51 µM
- TGI (NCI/ADR-RES ovarian): 7.18 µM
- GI50 (SR leukemia): 1 µM
- TGI (SR leukemia): 5 µM
- GI50 (COLO 205 colon): 3.14 µM
- TGI (COLO 205 colon): 10.8 µM
- GI50 (KM12 colon): 48.1 µM
- TGI (KM12 colon): > 100 µM
- GI50 (HCT-116 colon): 1.56 µM
- TGI (HCT-116 colon): 2.89 µM
- GI50 (MDA-MB-231 breast): 1.71 µM
- TGI (MDA-MB-231 breast): 3.27 µM
- GI50 (TK-10 renal): 4.76 µM
- TGI (TK-10 renal): > 100 µM
- GI50 (SF-295 CNS): 14.7 µM
- TGI (SF-295 CNS): > 100 µM
- GI50 (OVCAR-5 ovarian): 6.89 µM
- TGI (OVCAR-5 ovarian): 21.2 µM
- GI50 (MCF7 breast): 1.46 µM
- TGI (MCF7 breast): 3.22 µM
- GI50 (MOLT-4 leukemia): 1.78 µM
- TGI (MOLT-4 leukemia): 4.95 µM
- GI50 (CCRF-CEM leukemia): 1.73 µM
- TGI (CCRF-CEM leukemia): 5.19 µM
- GI50 (RXF 393 renal): 1.74 µM
- TGI (RXF 393 renal): 3.17 µM
- GI50 (SNB-19 CNS): 30.3 µM
- TGI (SNB-19 CNS): > 100 µM
